Results as given in patent publication US20260335388A1, “COMBINATION THERAPIES WITH ONCOLYTIC ADENOVIRUS AND TOPOISOMERASE I INHIBITORS OR PRODRUGS THEREOF” (priority 2022, published 2026).
Where two headings read alike, the source gives them in different places.

Legend:
[1] = system: RBT-7 intracerebral tumors; assay: Antitumor activity in CNS-disseminated retinoblastoma; type: in vivo, mouse; conditions: control 22 days; P of combination vs control 0.0004, topotecan 0.0072, standard of care 0.0040, VCN-01 0.0372; animals dying of toxicity excluded (FIG. 22C)
From the text: Antitumor activity in CNS-disseminated retinoblastoma. A model of retinoblastoma dissemination was established in the leptomeninges of the CNS. Anesthetized mice were restrained in a stereotactic apparatus (Stoelting, Wood Dale, IL, USA). Using a mouse brain atlas (Paxinos and Franklin, “The mouse brain in stereotaxic coordinates,” San Diego: Academic Press; 2001), the coordinates of the fourth ventricle were located and the surface of the skull was drilled. Then, […] (RBT-7) in 10 µL matrigel was injected with a dull 22G needle attached to a 50 µL syringe (Hamilton, Bonaduz, Switzerland). One week later, treatments were started with VCN-01 (3×10^9 vp in 20 µL vehicle, intraventricular, day 8), topotecan (0.6 mg/kg, i.p., days 8-12), SoC chemotherapy ([…], 40 mg/kg, i.p., day 8, and etoposide, 6 mg/kg, i.p., days 8-10) or the combination of VCN-01 and chemotherapies. The control group received the vehicle of VCN-01 (intraventricular). Animals achieved experimental endpoints upon deterioration of condition or 20% weight loss. Brains collected at endpoint were embedded in paraffin and stained with hematoxylin and eosin (H&E), human nuclei (MAB4383, 1:200, Millipore), viral protein E1A (ab33183, 1:200, Abcam) and CD45 (leukocyte common antigen; 70257, 1:200, Cell Signaling).

Y79 cells [2] = assay: Cell cycle of retinoblastoma cells (propidium iodide cytometry); type: cell-based
Procedure: Then, the cells were collected and fixed in 70% ethanol for 2 h. The propidium iodide (PI)-based assay FxCycle™ PI/RNase (Thermo Fisher Scientific) was used as staining solution prior to quantification by flow cytometry (NovoCyte).

[3] = Accumulation of topotecan in VCN-01-infected retinoblastoma; type: in vivo, mouse
From the text: Accumulation of topotecan in VCN-01-infected retinoblastoma. The Animal Experimental Ethics Committee at the University of Barcelona (animal protocol number 482/18) approved animal experimentation. Retinoblastoma cells in the eyes of athymic nude mice (Envigo, Barcelona, Spain), as previously described (Pascual-Pasto et al., 2016). After 14 days, VCN-01 (3×10^9 vp/eye) was inoculated. After another 14 days, s.c. osmotic pumps loaded with topotecan were implanted to achieve constant topotecan in plasma, as described previously (Pascual-Pasto et al., “Increased delivery of chemotherapy to the vitreous by inhibition of the blood-retinal barrier,” J Control Release 2017; 264:34-44), and collected tumor samples for analysis of topotecan.
Animal experiments were carried out following institutional and European guidelines (EU Directive 2010/63/EU) and the ARRIVE guidelines ([…]). Retinoblastoma cells (2×10^5) were inoculated into the posterior segment of the eye of six week old athymic nude mice using a dull 33G needle, as previously described (Giani et al., 1994). […] Samples were analyzed by high performance liquid chromatography (HLPC) as described previously ([…]).

Y79 retinoblastoma cells = assay: cells; type: cell-based
[4] = system: Y79 cells and primary retinoblastoma cultures; type: cell-based
[5] = system: HSJD-NB-005 neuroblastoma; assay: Antitumor activity in neuroblastoma PDX HSJD-NB-005; type: in vivo, mouse; conditions: single treatment (FIG. 24D,F)
Procedure: PDX of neuroblastoma (pediatric solid tumor) were implanted subcutaneously into athymic nude mice. Tumor model was HSJD-NB-005. Upon engraftment (tumor volumes ranging 100-500 mm^3), treatments were started. The activity of topotecan vs. irinotecan in combination with VCN-01 was evaluated. The following groups of mice were included in the study, with an n of 6 tumors per group: • Group 1: no treatment • Group 2: topotecan i.p. at 0.6 mg/kg, Day 1-5 • Group 3: irinotecan i.p. at 10 mg/kg, Day 1-5 • Group 4: VCN-01 i.t at 3E9 vp/tumor, Day 1 • Group 5: VCN-01 i.t at 3E9 vp/tumor, Day 1 (morning)+topotecan i.p. at 0.6 mg/kg, Day 1-5 • Group 6: VCN-01 i.t at 3E9 vp/tumor, Day 1 (morning)+irinotecan i.p. at 10 mg/kg, Day 1-5
Antitumor activity in extracranial pediatric solid tumors. 5-10 mm^3 fresh fragments of Ewing sarcoma or neuroblastoma PDX were implanted in both flanks of mice. Upon s.c. engraftment (tumor volume 150-200 mm^3), mice received topotecan (0.6 mg/kg, i.p., days 1-5), VCN-01 (3×10^9 vp in 20 µL vehicle, intratumoral, day 1), or the combination. In two additional groups, an alternative topoisomerase 1 inhibitor, irinotecan (10 mg/kg, i.p., on days 1-5) we used in place of topotecan. Upon completion of treatments, tumor volumes were followed until endpoint (1500 mm^3), or until day 80.

Y79 cells [6] = assay: Viability of Y79 cells by treatment sequence; type: cell-based
Procedure: To address the sequence of the treatments on cell viability and apoptosis markers, topotecan (2 μM) and VCN-01 at 50 MOI (concentration sufficient to achieve viral protein transduction at early time points) was incubated with the sequence “topotecan first” (three days before VCN-01) or “VCN-01 first” (three days before topotecan). The experiments were controlled by adding culture medium instead of the second treatment.

retinoblastoma cells = type: cell-based; conditions: infection of retinoblastoma cells with VCN-01
[7] = system: HSJD-RBT-5 retinoblastoma cells; assay: cells; type: cell-based; conditions: Homo sapiens
[8] = read-out: IC50, Topotecan single agent
[9] = read-out: IC50, Topotecan with VCN-01 (10 MOI)

CC[C@@]1(O)C(=O)OCc2c1cc1n(c2=O)Cc2cc3c(CN(C)C)c(O)ccc3nc2-1 [Topotecan, topotecan]
median survival [1]: 28 days
percentage of cells in S-phase (Y79 cells [2]; 24 h (FIG. 17A)): increased the percentage of cells in S-phase
duration of S-phase effect (Y79 cells [2]; topotecan 2 μM (FIG. 17B,C)): at least 48 h
biodistribution of topotecan in intraocular tumors ([3]; concomitant treatment with VCN-01 (FIG. 21)): did not change
concentration at 6 h ([3]; mouse, in vivo, sc, 25 ug/h, osmotic pump, 25 μg/h, athymic nude mice, read-out: topotecan plasma level at steady state): ~100 ng/mL
IC50 (Y79 retinoblastoma cells; [8]): 30.3 nM
IC50 (Y79 retinoblastoma cells; [9]): 893 nM
transgene expression, virus first ([4]; cells pre-infected with AdTLRGDK (FIG. 18E, FIG. 19A)): increased transgene expression
viral transduction, drug first ([4]; drug exposure before viral infection (FIG. 18E)): did not enhance viral transduction
response of xenograft to single treatment [5]: highly resistant
antiproliferative activity, topotecan first (Y79 cells [6]; cells pre-exposed to topotecan before VCN-01 infection (FIG. 13D)): sensitive to the antiproliferative activity of the drug
antiproliferative activity, VCN-01 first (Y79 cells [6]; previous VCN-01 infection (FIG. 13D)): partially abolished the activity of the drug
cell sensitivity to drug after VCN-01 infection (retinoblastoma cells): decreased cell sensitivity
IC50 [7, 8]: 87.9 nM
IC50 [7, 9]: 586 nM
